Test results reported in patent US20260315452A1, “PROTEASE INHIBITORS AND USES THEREOF” (priority 2023, published 2026).

Assays:
[1] = tested on: SARS-CoV-2; test: Anti-SARS-CoV-2 activity in A549 cells expressing the human ACE2 receptor (inhibition of SARS-CoV-2 replication); type: cell-based; settings: for EC50: Severe acute respiratory syndrome coronavirus 2, A549-ACE2, 24 h, read-out: Antiviral Activity (EC50); for antiviral potency in A549 cells in comparison with compound Ref-2: versus Ref-2 (FIG. 7)
[2] = biological target: SARS-CoV-2 3CLpro (Severe acute respiratory syndrome coronavirus 2, UniProt P0DTD1); test: biochemical; settings: inhibition of SARS-CoV-2 3CLpro; 15 nM 3CLpro, 25 μM fluorogenic substrate, 37° C.; read-out: Inhibitory Activity (IC50)

CNC(=O)c1cc(Br)cc([N+](=O)[O-])c1N1CCC2(CCN(C(=O)c3cncc4ccccc34)C2)C1 (stereo not shown) [Compound 66, 5-bromo-2-(7-(isoquinoline-4-carbonyl)-2,7-diazaspiro[4.4]nonan-2-yl)-N-methyl-3-nitrobenzamide] gave an EC50 [1] of 100 to 1000 nM and an IC50 [2] of 100 to 1000 nM.

CC(C)(O)CNC(=O)c1cc(Cl)cc([N+](=O)[O-])c1N[C@H]1CN(C(=O)c2cncc3ccccc23)CCC1(F)F [Compound 40, (S)-5-chloro-2-((4,4-difluoro-1-(isoquinoline-4-carbonyl)piperidin-3-yl)amino)-N-(2-hydroxy-2-methylpropyl)-3-nitrobenzamide] gave an EC50 [1] of under 100 nM and an IC50 [2] of under 100 nM.

In the case of O=C(NC1CC(F)(F)C1)c1cc(Cl)cc([N+](=O)[O-])c1N[C@H]1CN(C(=O)c2cncc3ccccc23)CCC1(F)F [Compound 158, (S)-5-chloro-2-((4,4-difluoro-1-(isoquinoline-4-carbonyl)piperidin-3-yl)amino)-N-(3,3-difluorocyclobutyl)-3-nitrobenzamide], the EC50 [1] is reported as under 100 nM and the IC50 [2] is reported as under 100 nM.

Molecule O=C(NC1CC(F)(F)C1)c1cc(Br)cc(C(F)(F)F)c1N[C@@H]1COCC[C@@H]1NC(=O)c1cncc2cc(F)ccc12 [Compound 80, N-((3S, 4S)-3-((4-bromo-2-((3,3-difluorocyclobutyl)carbamoyl)-6-(trifluoromethyl)phenyl)amino)tetrahydro-2H-pyran-4-yl)-7-fluoroisoquinoline-4-carboxamide] has an EC50 [1] of 100 to 1000 nM and an IC50 [2] of 100 to 1000 nM.

Molecule O=C(N[C@H]1CCOC1)c1cc(Br)cc([N+](=O)[O-])c1N[C@H]1CN(C(=O)c2cncc3ccccc23)CCC1(F)F [Compound 149, 5-bromo-2-(((S)-4,4-difluoro-1-(isoquinoline-4-carbonyl)piperidin-3-yl)amino)-3-nitro-N-((S)-tetrahydrofuran-3-yl)benzamide] has an EC50 [1] of under 100 nM and an IC50 [2] of under 100 nM.

In the case of CC1(NC(=O)c2cc(Br)cc([N+](=O)[O-])c2N[C@H]2CN(C(=O)c3cncc4ccccc34)CCC2(F)F)CC1 [Compound 157, (S)-5-bromo-2-((4,4-difluoro-1-(isoquinoline-4-carbonyl)piperidin-3-yl)amino)-N-(1-methylcyclopropyl)-3-nitrobenzamide], the EC50 [1] is reported as under 100 nM and the IC50 [2] is reported as under 100 nM.

CNC(=O)c1cc(Br)cc([N+](=O)[O-])c1N[C@H]1CN(C(=O)c2cncc3ccccc23)CC(F)(F)C1 [Compound 62, (R)-5-bromo-2-((5,5-difluoro-1-(isoquinoline-4-carbonyl)piperidin-3-yl)amino)-N-methyl-3-nitrobenzamide] showed an EC50 [1] of 100 to 1000 nM and an IC50 [2] of 100 to 1000 nM.

In the case of O=C(NC1CC(F)(F)C1)c1cc(Cl)cc([N+](=O)[O-])c1N[C@@H]1COCC[C@@H]1NC(=O)c1cncc2ccccc12 [Compound 29, N-((3S, 4S)-3-((4-chloro-2-((3,3-difluorocyclobutyl)carbamoyl)-6-nitrophenyl)amino)tetrahydro-2H-pyran-4-yl)isoquinoline-4-carboxamide], the “antiviral potency in A549 cells in comparison with compound Ref-2” value [1] is reported as “better antiviral potency”, the EC50 [1] is reported as under 100 nM and the IC50 [2] is reported as under 100 nM.

CNC(=O)c1cc(Br)cc([N+](=O)[O-])c1N[C@@H]1CCCC[C@@H]1NC(=O)c1cncc2cc(F)ccc12 [Compound 8, N-((1S, 2R)-2-((4-bromo-2-(methylcarbamoyl)-6-nitrophenyl)amino)cyclohexyl)-7-fluoroisoquinoline-4-carboxamide] was tested, and the EC50 [1] was 100 to 1000 nM and the IC50 [2] was under 100 nM.

O=C(NC1CC1)c1cc(Br)cc([N+](=O)[O-])c1N[C@H]1CN(C(=O)c2cncc3ccccc23)CCC1(F)F [Compound 147, (S)-5-bromo-N-cyclopropyl-2-((4,4-difluoro-1-(isoquinoline-4-carbonyl)piperidin-3-yl)amino)-3-nitrobenzamide] showed an EC50 [1] of under 100 nM and an IC50 [2] of under 100 nM.

C=CCNC(=O)c1cc(Br)cc([N+](=O)[O-])c1N[C@H]1CN(C(=O)c2cncc3ccccc23)CCC1(F)F [Compound 156, (S)-N-ally1-5-bromo-2-((4,4-difluoro-1-(isoquinoline-4-carbonyl)piperidin-3-yl)amino)-3-nitrobenzamide] gave an EC50 [1] of under 100 nM and an IC50 [2] of under 100 nM.

O=C(N[C@H]1CCCC[C@H]1Nc1c(C(=O)N2CC(F)(F)C2)cc(Br)cc1[N+](=O)[O-])c1cncc2ccccc12 [Compound 14, N-((1S, 2R)-2-((4-bromo-2-(3,3-difluoroazetidine-1-carbonyl)-6-nitrophenyl)amino)cyclohexyl)isoquinoline-4-carboxamide] gave an EC50 [1] of 100 to 1000 nM and an IC50 [2] of 100 to 1000 nM.

For O=C(N[C@@H]1CCNC1)c1cc(Br)cc([N+](=O)[O-])c1N[C@H]1CN(C(=O)c2cncc3ccccc23)CCC1(F)F [Compound 46, 5-bromo-2-(((S)-4,4-difluoro-1-(isoquinoline-4-carbonyl)piperidin-3-yl)amino)-3-nitro-N-((R)-pyrrolidin-3-yl) benzamide], the EC50 [1] was under 100 nM and the IC50 [2] was under 100 nM.

With CNC(=O)c1cc(Br)cc([N+](=O)[O-])c1N1CCC2(CN(C(=O)c3cncc4ccccc34)CC2(F)F)C1 (stereo not shown) [Compound 129, 5-bromo-2-(9,9-difluoro-7-(isoquinoline-4-carbonyl)-2,7-diazaspiro[4, 4]nonan-2-yl)-N-methyl-3-nitrobenzamide] the EC50 [1] was 100 to 1000 nM and the IC50 [2] was 100 to 1000 nM.

Work on CNC(=O)c1cc(Br)cc([N+](=O)[O-])c1NC1CCC2(C1)CN(C(=O)c1cncc3ccccc13)C2 (stereo not shown) [Compound 127, 5-bromo-2-((2-(isoquinoline-4-carbonyl)-2-azaspiro[3, 4]octan-6-yl)amino)-N-methyl-3-nitrobenzamide] yielded an EC50 [1] of over 10000 nM and an IC50 [2] of 1000 to 10000 nM.

Work on CNC(=O)c1cc(Cl)cc(C(F)(F)F)c1N[C@@H]1COCC[C@@H]1NC(=O)c1cncc2ccccc12 [Compound 146, N-((3S, 4S)-3-((4-chloro-2-(methylcarbamoyl)-6-(trifluoromethyl)phenyl)amino)tetrahydro-2H-pyran-4-yl)isoquinoline-4-carboxamide] yielded an EC50 [1] of 100 to 1000 nM and an IC50 [2] of 100 to 1000 nM.

CNC(=O)c1cc(Cl)cc(C(F)(F)F)c1N[C@H]1CN(C(=O)c2cncc3ccccc23)CCC1(F)F [Compound 84, (S)-5-chloro-2-((4,4-difluoro-1-(isoquinoline-4-carbonyl)piperidin-3-yl)amino)-N-methyl-3-(trifluoromethyl)benzamide] showed an EC50 [1] of under 100 nM and an IC50 [2] of under 100 nM.

Work on CN(C)C1CN(C(=O)c2cc(Br)cc([N+](=O)[O-])c2N[C@H]2CN(C(=O)c3cncc4ccccc34)CCC2(F)F)C1 [Compound 47] yielded an EC50 [1] of under 100 nM and an IC50 [2] of under 100 nM.

CC(C)(O)CNC(=O)c1cc(Br)cc([N+](=O)[O-])c1N[C@H]1CN(C(=O)c2cncc3ccccc23)CCC1(F)F [Compound 154, (S)-5-bromo-2-((4,4-difluoro-1-(isoquinoline-4-carbonyl)piperidin-3-yl)amino)-N-(2-hydroxy-2-methylpropyl)-3-nitrobenzamide] was tested, and the EC50 [1] was under 100 nM and the IC50 [2] was under 100 nM.

NC(=O)c1cc(Br)cc([N+](=O)[O-])c1N[C@@H]1CCCC[C@@H]1NC(=O)c1cncc2ccccc12 [Compound 53, N-((1S,2R)-2-((4-bromo-2-carbamoyl-6-nitrophenyl)amino)cyclohexyl)isoquinoline-4-carboxamide] gave an EC50 [1] of 1000 to 10000 nM and an IC50 [2] of 100 to 1000 nM.

In the case of O=C(N[C@@H]1CCOC1)c1cc(Br)cc([N+](=O)[O-])c1N[C@H]1CN(C(=O)c2cncc3ccccc23)CCC1(F)F [Compound 37, 5-bromo-2-(((S)-4,4-difluoro-1-(isoquinoline-4-carbonyl)piperidin-3-yl)amino)-3-nitro-N-((R)-tetrahydrofuran-3-yl)benzamide], the “antiviral potency in A549 cells in comparison with compound Ref-2” value [1] is reported as “better antiviral potency”, the EC50 [1] is reported as under 100 nM and the IC50 [2] is reported as under 100 nM.

In the case of O=C(NC1CC(F)(F)C1)c1cc(Br)cc(C(F)(F)F)c1N[C@H]1CN(C(=O)c2cncc3ccccc23)CCC1(F)F [Compound 144, (S)-5-bromo-2-((4,4-difluoro-1-(isoquinoline-4-carbonyl)piperidin-3-yl)amino)-N-(3,3-difluorocyclobutyl)-3-(trifluoromethyl)benzamide], the EC50 [1] is reported as under 100 nM and the IC50 [2] is reported as under 100 nM.
